Square brackets hold non-standard residues; d marks the D form. Peptide text beside a SMILES is read from it.

This is an account of results in patent US20250002548A1, “Wild Boar Cathelicidin Peptide Variants and Vectors Encoding the Same for Uses in Managing Coronavirus Infections” (Emory University, priority 2021, published 2025).

Data set [1] has as its system human red blood cells (RBCs).
Data set [2] concerns Vero E6 and HEK293T cells. As to conditions: administered over 48 hours.
The test system of data set [3] is SARS-CoV-2. Particulars: ratio of IC50 and TD50; SARS-CoV-2 vs Vero E6 cells.
Data set [4] concerns SARS-CoV-2.

As to `CC[C@H](C)[C@H](NC(=O)[C@H](CCCCN)NC(=O)[C@H](CCCCN)NC(=O)[C@H](CC(C)C)NC(=O)[C@H](CCCNC(=N)N)NC(=O)[C@H](CCCCN)NC(=O)[C@H](CCCNC(=N)N)NC(=O)[C@@H](NC(=O)[C@H](CCCCN)NC(=O)[C@H](CCCCN)NC(=O)[C@H](CCCNC(=N)N)NC(=O)[C@H](CC(C)C)NC(=O)[C@H](CCCNC(=N)N)NC(=O)[C@H](CCCNC(=N)N)NC(=O)[C@H](Cc1ccccc1)NC(=O)[C@H](CCCNC(=N)N)NC(=O)CNC(=O)[C@@H](N)C(C)C)[C@@H](C)O)C(=O)NCC(=O)N[C@@H](CCCCN)C(=O)N[C@H](C(=O)N[C@@H](CC(C)C)C(=O)N[C@@H](CCCCN)C(=O)N[C@@H](Cc1c[nH]c2ccccc12)C(=O)N[C@H](C(=O)N1CCC[C@H]1C(=O)N1CCC[C@H]1C(=O)N[C@H](C(=O)N[C@H](C(=O)NCC(=O)N[C@@H](CO)C(=O)N[C@H](C(=O)N1CCC[C@H]1C(=O)N[C@@H](CC(C)C)C(=O)NCC(=O)N[C@@H](CO)C(=O)NCC(=O)O)[C@@H](C)CC)C(C)C)[C@@H](C)CC)[C@@H](C)CC)C(C)C` [Yongshi] (H-VGRFRRLRKKTRKRLKKIGKVLKWIPPIVGSIPLGSG-OH), the hemolytic activity result in data set [1] is “significantly reduced hemolytic activity”. The cytotoxicity result in data set [2] is “decreased cytotoxicity compared to the parent PMAP-36R and LL-37”. Besides, the “therapeutic index (TI)” value in data set [3] was 3.50.
Take `CC[C@H](C)[C@H](NC(=O)[C@H](CCCCN)NC(=O)[C@H](CCC(=O)O)NC(=O)[C@H](CCCCN)NC(=O)[C@H](CO)NC(=O)[C@H](CCCCN)NC(=O)[C@H](CCCNC(=N)N)NC(=O)[C@H](Cc1ccccc1)NC(=O)[C@H](Cc1ccccc1)NC(=O)[C@H](CC(=O)O)NC(=O)CNC(=O)[C@H](CC(C)C)NC(=O)[C@@H](N)CC(C)C)C(=O)NCC(=O)N[C@@H](CCCCN)C(=O)N[C@@H](CCC(=O)O)C(=O)N[C@@H](Cc1ccccc1)C(=O)N[C@@H](CCCCN)C(=O)N[C@@H](CCCNC(=N)N)C(=O)N[C@H](C(=O)N[C@H](C(=O)N[C@@H](CCC(N)=O)C(=O)N[C@@H](CCCNC(=N)N)C(=O)N[C@H](C(=O)N[C@@H](CCCCN)C(=O)N[C@@H](CC(=O)O)C(=O)N[C@@H](Cc1ccccc1)C(=O)N[C@@H](CC(C)C)C(=O)N[C@@H](CCCNC(=N)N)C(=O)N[C@@H](CC(N)=O)C(=O)N[C@@H](CC(C)C)C(=O)N[C@H](C(=O)N1CCC[C@H]1C(=O)N[C@@H](CCCNC(=N)N)C(=O)N[C@H](C(=O)N[C@@H](CCC(=O)O)C(=O)N[C@@H](CO)C(=O)O)[C@@H](C)O)C(C)C)[C@@H](C)CC)C(C)C)[C@@H](C)CC` [LL-37, reference compound]: in data set [1], the hemolytic activity result is recorded as “significant hemolytic activity”.
In the case of `CC[C@@H](C)[C@@H](NC(=O)[C@H]1CCCN1C(=O)[C@H]1CCCN1C(=O)[C@H](NC(=O)[C@@H](Cc1c[nH]c2ccccc12)NC(=O)[C@@H](CCCCN)NC(=O)[C@@H](CC(C)C)NC(=O)[C@H](NC(=O)[C@@H](CCCCN)NC(=O)CNC(=O)[C@H](NC(=O)[C@@H](CCCCN)NC(=O)[C@@H](CCCCN)NC(=O)[C@@H](CC(C)C)NC(=O)[C@@H](CCCNC(=N)N)NC(=O)[C@@H](CCCCN)NC(=O)[C@@H](CCCNC(=N)N)NC(=O)[C@H](NC(=O)[C@@H](CCCCN)NC(=O)[C@@H](CCCCN)NC(=O)[C@@H](CCCNC(=N)N)NC(=O)[C@@H](CC(C)C)NC(=O)[C@@H](CCCNC(=N)N)NC(=O)[C@@H](CCCNC(=N)N)NC(=O)[C@@H](Cc1ccccc1)NC(=O)[C@@H](CCCNC(=N)N)NC(=O)CNC(=O)[C@H](N)C(C)C)[C@H](C)O)[C@H](C)CC)C(C)C)[C@H](C)CC)C(=O)N[C@@H](C(=O)NCC(=O)N[C@H](CO)C(=O)N[C@@H](C(=O)N1CCC[C@@H]1C(=O)N[C@H](CC(C)C)C(=O)NCC(=O)N[C@H](CO)C(=O)NCC(=O)O)[C@H](C)CC)C(C)C` [D-Yongshi] (H-[dV]G[dR][dF][dR][dR][dL][dR][dK][dK][dT][dR][dK][dR][dL][dK][dK][dI]G[dK][dV][dL][dK][dW][dI][dP][dP][dI][dV]G[dS][dI][dP][dL]G[dS]G-OH), the cytotoxicity result in data set [2] is on record as “significantly increased cytotoxicity”. Further, the “therapeutic index (TI)” value in data set [3] is on record as 1.64.
The term IC50 denotes the concentration that gives 50% inhibition. Consider `CC[C@H](C)[C@H](NC(=O)[C@H](CCCCN)NC(=O)[C@H](CCCCN)NC(=O)[C@H](CC(C)C)NC(=O)[C@H](CCCNC(=N)N)NC(=O)[C@H](CCCCN)NC(=O)[C@H](CCCNC(=N)N)NC(=O)[C@@H](NC(=O)[C@H](CCCCN)NC(=O)[C@H](CCCCN)NC(=O)[C@H](CCCNC(=N)N)NC(=O)[C@H](CC(C)C)NC(=O)[C@H](CCCNC(=N)N)NC(=O)[C@H](CCCNC(=N)N)NC(=O)[C@H](Cc1ccccc1)NC(=O)[C@H](CCCNC(=N)N)NC(=O)CNC(=O)[C@@H](N)C(C)C)[C@@H](C)O)C(=O)NCC(=O)N[C@@H](CCCCN)C(=O)N[C@H](C(=O)N[C@@H](CC(C)C)C(=O)N[C@@H](CCCCN)C(=O)N[C@@H](Cc1c[nH]c2ccccc12)C(=O)N[C@H](C(=O)N1CCC[C@H]1C(=O)N1CCC[C@H]1C(=O)N[C@H](C(=O)N[C@H](C(=O)NCC(=O)N[C@@H](CO)C(=O)N[C@H](C(=O)N1CCC[C@H]1C(=O)N[C@@H](CC(C)C)C(=O)NCC(=O)N[C@@H](CS)C(=O)NCC(=O)O)[C@@H](C)CC)C(C)C)[C@@H](C)CC)[C@@H](C)CC)C(C)C` [PMAP-36R] (H-VGRFRRLRKKTRKRLKKIGKVLKWIPPIVGSIPLGCG-OH; N-terminus and C-terminus assumed), for which the IC50 in data set [4] is 12 µM. Further, the hemolytic activity entry in data set [1] was “significant hemolytic activity”. Further, the cytotoxicity entry in data set [2] is recorded as “greater toxicity than LL-37”.
